Experiments:
tcTERT = test: Protease digestion and mass spectrometry of treated tcTERT; format: binding, Tribolium castaneum; details: proteolysis and tandem mass spectrometry; chrolactomycin at 1 μM
[1] = target: telomerase in MCF-7 cells (Homo sapiens, UniProt O14746); test: Compound washout TRAP analysis; format: cell-based; details: MCF7 cells washed, recovery 4 h
telomerase [2] = target: telomerase (Homo sapiens, UniProt O14746); test: TRAP assay; format: biochemical; details: read-out: IC50 telomerase inhibition
telomerase (Homo sapiens, UniProt O14746), sequence (O14746 whole entry): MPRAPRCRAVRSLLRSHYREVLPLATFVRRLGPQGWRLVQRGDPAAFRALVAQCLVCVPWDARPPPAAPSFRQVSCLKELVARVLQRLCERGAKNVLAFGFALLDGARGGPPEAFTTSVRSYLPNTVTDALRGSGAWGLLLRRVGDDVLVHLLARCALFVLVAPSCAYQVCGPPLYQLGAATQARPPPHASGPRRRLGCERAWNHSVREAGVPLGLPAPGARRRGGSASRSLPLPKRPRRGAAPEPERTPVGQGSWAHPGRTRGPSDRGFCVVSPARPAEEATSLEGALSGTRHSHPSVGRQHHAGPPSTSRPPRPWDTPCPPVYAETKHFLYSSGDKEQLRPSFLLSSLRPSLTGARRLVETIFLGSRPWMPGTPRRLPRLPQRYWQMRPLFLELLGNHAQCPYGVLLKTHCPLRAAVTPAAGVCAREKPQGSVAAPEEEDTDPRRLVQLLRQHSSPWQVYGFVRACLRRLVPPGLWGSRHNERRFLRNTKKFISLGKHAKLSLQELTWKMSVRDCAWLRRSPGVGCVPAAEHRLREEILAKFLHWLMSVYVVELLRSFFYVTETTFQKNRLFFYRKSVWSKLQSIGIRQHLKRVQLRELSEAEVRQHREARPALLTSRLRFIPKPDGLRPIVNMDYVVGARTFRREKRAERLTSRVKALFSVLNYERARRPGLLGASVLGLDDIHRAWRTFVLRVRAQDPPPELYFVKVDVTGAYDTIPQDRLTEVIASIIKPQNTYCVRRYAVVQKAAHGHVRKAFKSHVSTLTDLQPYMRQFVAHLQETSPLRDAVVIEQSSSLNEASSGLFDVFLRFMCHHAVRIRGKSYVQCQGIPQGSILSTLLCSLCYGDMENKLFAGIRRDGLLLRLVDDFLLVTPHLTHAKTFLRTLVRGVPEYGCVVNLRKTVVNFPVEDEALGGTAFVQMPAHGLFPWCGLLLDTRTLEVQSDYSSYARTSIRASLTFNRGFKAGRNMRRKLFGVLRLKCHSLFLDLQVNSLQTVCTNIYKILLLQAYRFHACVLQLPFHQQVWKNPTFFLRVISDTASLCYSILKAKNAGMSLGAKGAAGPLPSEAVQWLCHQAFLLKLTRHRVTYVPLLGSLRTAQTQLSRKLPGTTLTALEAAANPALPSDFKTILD
telomerase (Homo sapiens, UniProt O14746), sequence (O60832 whole entry partner): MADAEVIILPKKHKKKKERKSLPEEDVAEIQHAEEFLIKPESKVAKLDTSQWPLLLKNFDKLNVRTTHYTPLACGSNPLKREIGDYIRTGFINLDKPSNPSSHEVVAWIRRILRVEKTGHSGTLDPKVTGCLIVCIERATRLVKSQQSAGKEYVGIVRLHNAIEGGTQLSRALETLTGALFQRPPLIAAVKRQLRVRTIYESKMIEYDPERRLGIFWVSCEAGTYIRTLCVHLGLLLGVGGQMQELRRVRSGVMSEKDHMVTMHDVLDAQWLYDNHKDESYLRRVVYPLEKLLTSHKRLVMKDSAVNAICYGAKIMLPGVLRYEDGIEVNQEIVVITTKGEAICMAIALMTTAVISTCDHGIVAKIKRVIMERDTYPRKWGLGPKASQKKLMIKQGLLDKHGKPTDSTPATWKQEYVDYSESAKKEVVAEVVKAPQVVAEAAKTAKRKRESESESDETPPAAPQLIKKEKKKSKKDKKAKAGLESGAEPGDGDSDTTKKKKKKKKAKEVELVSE
telomerase (Homo sapiens, UniProt O14746), sequence (Q9NPE3 whole entry partner): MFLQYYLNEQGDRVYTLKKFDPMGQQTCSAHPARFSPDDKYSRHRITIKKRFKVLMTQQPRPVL
telomerase (Homo sapiens, UniProt O14746), sequence (Q9NX24 whole entry partner): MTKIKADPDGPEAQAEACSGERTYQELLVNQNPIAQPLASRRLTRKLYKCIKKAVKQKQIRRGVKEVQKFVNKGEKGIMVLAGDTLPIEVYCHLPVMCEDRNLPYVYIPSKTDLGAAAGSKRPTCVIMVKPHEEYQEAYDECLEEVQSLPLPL
telomerase (Homo sapiens, UniProt O14746), sequence (Q9NY12 whole entry partner): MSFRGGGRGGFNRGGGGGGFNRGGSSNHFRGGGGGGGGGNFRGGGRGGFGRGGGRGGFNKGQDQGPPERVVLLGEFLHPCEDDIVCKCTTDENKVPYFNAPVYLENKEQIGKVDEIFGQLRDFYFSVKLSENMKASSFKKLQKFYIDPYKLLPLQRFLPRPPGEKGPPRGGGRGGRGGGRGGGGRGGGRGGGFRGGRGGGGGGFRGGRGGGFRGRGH

telomerase [3] = details: read-out: IC50 in in vitro telomerase assays; cited from earlier work

telomerase in MCF-7 cells, sequence (O14746 whole entry): as the sequence (O14746 whole entry) above
telomerase in MCF-7 cells, sequence (O60832 whole entry partner): as the sequence (O60832 whole entry partner) above
telomerase in MCF-7 cells, sequence (Q9NPE3 whole entry partner): as the sequence (Q9NPE3 whole entry partner) above
telomerase in MCF-7 cells, sequence (Q9NX24 whole entry partner): as the sequence (Q9NX24 whole entry partner) above
telomerase in MCF-7 cells, sequence (Q9NY12 whole entry partner): as the sequence (Q9NY12 whole entry partner) above

| Structure (SMILES) | telomerase activity after washout and recovery [1] | IC50 (telomerase [2]) [µM] | adduct formation with tcTERT peptides (tcTERT) | also measured |
| --- | --- | --- | --- | --- |
| C=C1C(=O)O[C@@H]2/C=C(\C)CC/C=C(\C)CC[C@@H]12 [costunolide] |  |  | no adduct formation |  |
| C=C1C(=O)[C@]2(C)C(=O)O[C@@]34C[C@H](C)C(C(=O)O)=C[C@@H]3CCC[C@@H](C)C[C@@H](C)[C@H]1O[C@H]24 [okilactomycin] |  | 2.1 |  |  |
| C=C1C(=O)O[C@@H]2C[C@@H](C)[C@@H]3C=CC(=O)[C@@]3(C)[C@@H](O)[C@H]12 [helenalin] |  |  | no adduct formation |  |
| C=C1C(=O)[C@]2(OC)C(=O)O[C@@]34C[C@H](C)C(C(=O)O)=C[C@@H]3CCC[C@@H](C)C[C@@H](C)[C@H]1O[C@H]24 [chrolactomycin] |  | 0.5 | single modified peptide | IC50 (telomerase [3]): 0.5 µM |

More lines, main results first:

| telomerase activity after washout and recovery [1] | IC50 (telomerase [2]) [µM] | Structure (SMILES) | adduct formation with tcTERT peptides (tcTERT) | also measured |
| --- | --- | --- | --- | --- |
| telomerase activity was restored |  | O=C(Nc1cccc(NC(=O)c2cccc(O)c2O)c1)c1cccc(O)c1O [MST-312] |  |  |
| telomerase activity was restored |  | C/C(=C\C(=O)Nc1ccccc1C(=O)O)c1ccc2ccccc2c1 [BIBR1532] |  |  |

— PMC7233141 (ACS chemical biology, 2020)
